Laboratory results reported in ChEMBL document CHEMBL5523739, “NN1213 - A Potent, Long-Acting, and Selective Analog of Human Amylin” (J Med Chem, 2024).
In brackets after ≈: the same amount, converted by molar mass. Activity calls are given as the source filed them. No cut-off for these calls is given here.

What was measured:
[1] = target: T1, Amylin receptor AMY3; CALCR/RAMP3 (Homo sapiens, UniProt O60896+P30988); assay: Displacement of 125I-rat amylin from human AMY3R complex of CTR/RAMP3 expressed in Baby hamster kidney cell membrane incubated for 120 mins by SPA method; format: cell membranes
T1 sequence (P30988 whole entry): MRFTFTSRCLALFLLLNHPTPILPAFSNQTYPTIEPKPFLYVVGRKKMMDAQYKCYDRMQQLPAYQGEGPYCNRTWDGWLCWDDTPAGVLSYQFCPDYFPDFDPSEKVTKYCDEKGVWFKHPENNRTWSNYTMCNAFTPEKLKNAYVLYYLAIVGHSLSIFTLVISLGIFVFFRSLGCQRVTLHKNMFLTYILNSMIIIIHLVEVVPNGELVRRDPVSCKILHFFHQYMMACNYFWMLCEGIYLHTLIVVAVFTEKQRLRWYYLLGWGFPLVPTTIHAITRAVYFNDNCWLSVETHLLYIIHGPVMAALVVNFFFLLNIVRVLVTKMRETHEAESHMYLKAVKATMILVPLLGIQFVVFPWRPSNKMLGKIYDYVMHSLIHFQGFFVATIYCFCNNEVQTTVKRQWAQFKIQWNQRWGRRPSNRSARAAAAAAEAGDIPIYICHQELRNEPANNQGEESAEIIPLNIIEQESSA
T1 sequence (O60896 whole entry): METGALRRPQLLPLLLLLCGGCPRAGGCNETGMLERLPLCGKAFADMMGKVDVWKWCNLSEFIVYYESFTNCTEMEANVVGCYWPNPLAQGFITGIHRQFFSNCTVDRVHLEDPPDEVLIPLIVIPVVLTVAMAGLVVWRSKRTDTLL

[2] = Solubility of compound at pH 3 incubated overnight by UPLC analysis; format: physicochemical; conditions: buffer
[3] = Solubility of compound at pH 5 incubated overnight by UPLC analysis; format: physicochemical; conditions: buffer
[4] = Solubility of compound at pH 6 incubated overnight by UPLC analysis; format: physicochemical; conditions: buffer
[5] = Solubility of compound at pH 6.5 incubated overnight by UPLC analysis; format: physicochemical; conditions: buffer
[6] = Solubility of compound at pH 7 incubated overnight by UPLC analysis; format: physicochemical; conditions: buffer
[7] = Solubility of compound at pH 7.5 incubated overnight by UPLC analysis; format: physicochemical; conditions: buffer
[8] = Stability against amyloid fibril formation at pH 7.5 assessed as lag time at 1 uM measured after 45 hrs by ThT assay; format: physicochemical; conditions: pH 7.5, 45 h
[9] = Stability against amyloid fibril formation at pH 7.5 assessed as compound recovery at 1 uM measured after 45 hrs by ThT assay; format: physicochemical; conditions: pH 7.5, 45 h
Rattus norvegicus [10] = assay: Appetite suppressing activity in rat assessed as reduction in food intake at 30 nmol/kg, sc measured upto 24 hrs relative to control; format: functional; set-up: scale not given: the % may be the effect or the level left
Rattus norvegicus [11] = assay: Appetite suppressing activity in rat assessed as reduction in food intake at 30 nmol/kg, sc measured for 24 to 48 hrs relative to control; format: functional; set-up: scale not given: the % may be the effect or the level left; conditions: time 24-48 hrs
Calcitonin receptor = target: T2, Calcitonin receptor (Homo sapiens, UniProt P30988); assay: Agonist activity at human CTR transduced in human HeLa cells by cAMP assay; format: functional, cell-based
T2 sequence (P30988 whole entry): T1 sequence (P30988 whole entry)

[12] = Terminal half life in rat at 2.5 nmol/kg, sc; format: ADME; conditions: in vivo, read-out: beta t1/2 (converted)
[13] = Terminal half life in Gottingen minipig at 4.8 nmol/kg, iv; format: ADME, Sus scrofa; conditions: pig, in vivo, read-out: beta t1/2 (converted)
Rattus norvegicus [14] = assay: Appetite suppressing activity in rat assessed as reduction in food intake administered subcutaneously measured for 48 hrs; format: functional, organism-based; conditions: dose 3-100 nmol/kg, route sc
Rattus norvegicus [15] = assay: Appetite suppressing activity in rat assessed as reduction in food intake at 3 nmol/kg, sc measured after 24 hrs relative to control; format: functional; set-up: scale not given: the % may be the effect or the level left
Rattus norvegicus [16] = assay: Appetite suppressing activity in rat assessed as reduction in food intake at 3 nmol/kg, sc measured after 48 hrs relative to control; format: functional; set-up: scale not given: the % may be the effect or the level left
Canis familiaris [17] = assay: Appetite suppressing activity in dog assessed as reduction in food intake at 3 nmol/kg, sc measured for 48 hrs; format: functional, organism-based; conditions: Canis lupus familiaris
Canis familiaris [18] = assay: Appetite suppressing activity in dog assessed as reduction in food intake at 300 nmol/kg, sc measured for 48 hrs relative to control; format: functional, Canis lupus familiaris; set-up: scale not given: the % may be the effect or the level left
[19] = Toxicity in dog assessed as sign of discomfort at 3 to 300 nmol/kg, sc; set-up: species or system Canis lupus familiaris; conditions: in vivo, dose 3-300 nmol/kg
Rattus norvegicus [20] = assay: Appetite suppressing activity in HFD-fed DIO rat model assessed as reduction in food intake at 0.7 nmol/kg, sc qd measured for 21 days relative to control; format: functional; set-up: scale not given: the % may be the effect or the level left; conditions: time 21 day
Rattus norvegicus [21] = assay: Appetite suppressing activity in HFD-fed DIO rat model assessed as reduction in body weight at 2.2 to 22 nmol/kg, sc qd measured for 21 days relative to control; format: functional; set-up: scale not given: the % may be the effect or the level left; conditions: dose 2.2-22 nmol/kg, time 21 day
Rattus norvegicus [22] = assay: Appetite suppressing activity in HFD-fed DIO rat model assessed as reduction in body weight administered subcutaneously once daily measured for 21 days; format: functional, organism-based; conditions: dose 0.7-22 nmol/kg, route sc, time 21.0 day
Rattus norvegicus [23] = assay: Appetite suppressing activity in HFD-fed DIO rat model assessed as body weight lost at 22 nmol/kg, sc qd measured after 21 days; format: functional; conditions: time 21 day
Rattus norvegicus [24] = assay: Appetite suppressing activity in HFD-fed DIO rat model assessed as reduction in fat mass administered subcutaneously once daily measured after 21 days; format: functional, organism-based; conditions: dose 0.7-22 nmol/kg, route sc, time 21.0 day
Rattus norvegicus [25] = assay: Appetite suppressing activity in HFD-fed DIO rat model assessed as reduction in body weight administered subcutaneously once daily measured after 21 days; format: functional, organism-based; conditions: dose 0.7-22 nmol/kg, route sc, time 21.0 day

SMILES: CC[C@H](C)[C@H](NC(=O)[C@H](C)NC(=O)CNC(=O)[C@H](Cc1ccccc1)NC(=O)[C@H](CC(N)=O)NC(=O)[C@@H]1CCCN1C(=O)[C@H](CO)NC(=O)[C@H](CO)NC(=O)[C@H](Cc1c[nH]cn1)NC(=O)[C@H](CCCNC(=N)N)NC(=O)[C@H](CC(C)C)NC(=O)[C@H](Cc1ccccc1)NC(=O)[C@H](CC(=O)O)NC(=O)[C@H](C)NC(=O)[C@H](CC(C)C)NC(=O)[C@H](CCCNC(=N)N)NC(=O)[C@H](CCC(N)=O)NC(=O)[C@@H](NC(=O)[C@H](C)NC(=O)[C@@H]1CSSC[C@H](NC(=O)[C@@H](N)CCCCN)C(=O)N[C@@H](CC(N)=O)C(=O)N[C@@H]([C@@H](C)O)C(=O)N[C@@H](C)C(=O)N[C@@H]([C@@H](C)O)C(=O)N1)[C@@H](C)O)C(=O)N1CCC[C@H]1C(=O)N[C@@H](CO)C(=O)N[C@@H](CO)C(=O)N[C@H](C(=O)N[C@@H](CC(N)=O)C(=O)N[C@H](C(=O)NCC(=O)N[C@@H](CO)C(=O)N[C@@H](CCCNC(=N)N)C(=O)N[C@H](C(=O)N[C@@H](Cc1ccc(O)cc1)C(N)=O)[C@@H](C)O)C(C)C)[C@@H](C)O
- IC50 [1]: 0.561 nM
- solubility [2]: ≥ 200 µM
- solubility [3]: ≥ 200 µM
- solubility [4]: ≥ 200 µM
- solubility [5]: ≥ 200 µM
- solubility [6]: 155 µM (≈ 615 µg/mL)
- solubility [7]: 106 µM (≈ 421 µg/mL)
- Time [8]: 42 h
- Drug recovery [9]: 96%
- Activity (Rattus norvegicus [10]): 70%
- Activity (Rattus norvegicus [11]): 50%
- EC50 (Calcitonin receptor): 1.74 nM
- half-life [12]: ~24 h
- half-life [13]: ~115 h
- Activity (Rattus norvegicus [14]): Dose-Dependent Effect
- Activity (Rattus norvegicus [15]): 25%
- Activity (Rattus norvegicus [16]): 15%
- Activity (Canis familiaris [17]): inactive
- Activity (Canis familiaris [18]): 90%
- Activity [19]: Non-Toxic
- Activity (Rattus norvegicus [20]): 4.7%
- Activity (Rattus norvegicus [21]): 8.7%
- Activity (Rattus norvegicus [22]): Dose-Dependent Effect
- Activity (Rattus norvegicus [23]): 69.6 g
- Activity (Rattus norvegicus [24]): Dose-Dependent Effect
- Activity (Rattus norvegicus [25]): Dose-Dependent Effect
